The record followed here is patent US5457106A, “Pyridine derivatives, their production and use” (Takeda Chemical Industries, Ltd., priority 1991, dated 1995).

Molecules are shown by their SMILES. Counter-ions that a name gives are not always drawn.

The target of one test is T1, cyclooxygenase (Rattus norvegicus, UniProt Q63921).
T1 construct: from tissue; host or cells: platelets in platelet-rich plasma from rat abdominal aorta blood (Jcl:wistar, male)
T1 sequence (Q63921 27-602): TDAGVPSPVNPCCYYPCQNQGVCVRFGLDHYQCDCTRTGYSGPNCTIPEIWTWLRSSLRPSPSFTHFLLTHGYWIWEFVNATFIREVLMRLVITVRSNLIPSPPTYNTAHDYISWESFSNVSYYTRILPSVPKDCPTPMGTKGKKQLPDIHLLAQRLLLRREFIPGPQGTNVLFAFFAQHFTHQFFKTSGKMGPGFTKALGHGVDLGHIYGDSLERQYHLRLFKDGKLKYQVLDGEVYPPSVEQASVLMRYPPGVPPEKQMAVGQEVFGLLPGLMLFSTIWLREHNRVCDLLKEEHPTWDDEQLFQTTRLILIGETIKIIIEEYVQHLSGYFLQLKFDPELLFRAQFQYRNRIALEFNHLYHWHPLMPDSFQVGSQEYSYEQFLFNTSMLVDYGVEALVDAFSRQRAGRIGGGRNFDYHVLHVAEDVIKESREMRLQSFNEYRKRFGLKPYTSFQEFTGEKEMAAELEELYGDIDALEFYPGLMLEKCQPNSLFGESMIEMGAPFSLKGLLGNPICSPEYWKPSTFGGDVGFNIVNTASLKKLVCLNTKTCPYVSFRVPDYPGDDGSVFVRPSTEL
Kind of test: Cyclooxygenase inhibitory activity (HHT formation from arachidonic acid in rat platelet-rich plasma). It is filed as cell-based, rat (Jcl:wistar).

The subject of test [1] is Rat carrageenin pedal edema. Kind of test: Rat carrageenin pedal edema inhibitory activity. The class given is in vivo, rat (Jcl: SD). Conditions: 50 mg/kg, orally, 3 hours after carrageenin; for inhibition in vivo at 50 mg/kg: Rattus norvegicus, po, 3 h, read-out: Inhibitory percentage (carrageenin pedal edema). The method, then: Rat Carrageenin Pedal Edema Inhibitory Activity A Jcl: SD male rat (6 weeks old, weight 160-220 g) was used. After the mesurement of the volume of the dexter hind limb foot pad, a test compound suspended in 5% gum arabic solution was administered orally. Immediately after the administration, water was further administered orally so that the total administration volume of liquid became 5 ml/rat. After one hour, 0.05 ml of 1% carrageenin suspension in physiological saline was injected subcutaneously in the foot pad to induce edema [Winter, […]. and Nuss, G. W.: Proc. Soc. exp. […] Three hours after injection of carrageenin, the volume of the dexter limb was measured, and the edema volume was calculated by the difference between the volume after injection and the volume prior to injection.

Test [2] relates to ART (antigen-responding T-cell). Kind of test: In vitro ART (antigen-responding T-cell) proliferation test. The class given is cell-based, Lewis rat. Particulars: Rattus norvegicus, T-cell, read-out: % Inhibition of ART growth.
For test [3], the system named is Mouse phenylquinone writhing. Kind of test: Mouse phenylquinone writhing inhibitory activity. It is filed as in vivo, mouse (Slc: ICR). Conditions: Mus musculus, po, 20 min, 50 mg/kg, orally; read-out: Inhibitory percentage (phenylquinone writhing). The method, then:
Mouse Phenylquinone Writhing Inhibitory Activity A Slc: ICR male mouse (4 weeks, weight 17 to 24 g) was used. A test compound suspended in 5% gum arabic solution was administered orally. After 30 minutes, 0.1 ml/10 g body weight of 0.02% phenylquinone solution in water (dissolved by the aid of 5% ethanol) was injected intraperitoneally, and writhing and stretching responses of individual animals were measured for 20 minutes [Siegmund, E., Cadmus, R. and Lu, G.; Proc. Soc. exp. Biol. Med. 95, (1957)].
(In general: Writhing tests count abdominal constrictions after an irritant is injected.)

Test [4] concerns brewer's yeast induced pyrexia. In words: Antipyretic activity (brewer's yeast induced pyrexia). Conditions: 50 mg/kg, orally; for Antipyretic activity, .increment. °C.: at peak time. It is filed as in vivo, rat (DS line). The protocol: Antipyretic Activity Six male DS line rats, 7 weeks old, weighing 200 to 240 g (Nihon Clea) per one group were used. According to the method of Winder et al. (J. Pharmac. Exp. Ther. 138: 405 (1963)), a suspension of 15% brewer's yeast (Sigma) in physiological saline (1 ml/100 g, b.w.) was injected subcutaneously at 16 hours before measurement of the body temperature to induce pyrexia. After injection of yeast, only water was provided, and each rat was bred separately in a five duplicate cage. At 16, 17 and 18 hours after yeast injection, the rectal temperature was measured by a thermistor thermometer (Takara Kogyo K.K.), and this was taken as the basal body temperature. […] Animals having the body temperature of not lower than 38.5° C. at 18 hours after yeast injection were selected, and a test compound was administered orally (1 ml/100 g, b.w.). As a control, only the solvent was provided. Upon administration, the body temperature of the control group and that of the test compound-administered group were adjusted to the same temperature. The rectal temperature was measured every hour till five hours after administration.

The IC50 is the point on the concentration scale where inhibition reaches its midpoint. Regarding `O=C(/C=C/c1ccccc1)NCCCSc1ccncc1` [Example 28, 4-[3-(cinnamoylamino)propylthio]pyridine hydrochloride], at cyclooxygenase, the IC50 stood at 5.6 µM. Moreover, the inhibition in vivo at 50 mg/kg in test [1] came out at 25%.
The matching figures for `Cc1ccc(C(=O)NCCCSc2ccncc2)cc1` [Example 31, 4-[3-(4-methylbenzoylamino)propylthio]pyridine]: 4.6 µM and 32%.
One may read the inhibition as the drop in the measured response relative to a control, in per cent. `COc1cc(OC)cc(C(=O)NCCCSc2ccncc2)c1` [Example 33, 4-[3-(3,5-dimethoxybenzoylamino)propylthio]pyridine] gave an IC50 against cyclooxygenase of 2.8 µM. In test [2], the inhibition at 1 µM was found to be 33% and the inhibition at 10 µM stood at 46%. Also, in test [1], the inhibition in vivo at 50 mg/kg amounted to 37%.
In turn, `O=C(NCCCSc1ccncc1)c1ccncc1` [Example 43, 4-[3-(4-picolynoylamino)propylthio]pyridine] showed an IC50 at cyclooxygenase of 13 µM. Further, the results for the inhibition in vivo at 50 mg/kg in test [1] and in test [3] were 24% and 48%, respectively.
On to `O=C(NCCCSc1ccccn1)c1cccs1` [Example 47, 2-[3-(thenoylamino)propylthio]pyridine], for which the figures for the inhibition in vivo at 50 mg/kg in test [1] and in test [3] were 25% and 47%, respectively.
Molecule `O=C(Cc1cccs1)NCCCSc1ccncc1` [Example 55, 4-[3-(2-thienylacetylamino)propylthio]pyridine] came in with an IC50 on cyclooxygenase of 8.7 µM. Besides, the results for the inhibition in vivo at 50 mg/kg in test [1] and in test [3] were 41% and 58%, respectively.
In the same order, the values of `O=C(NCCCSc1ccncc1)c1cc(Br)c(Br)s1` [Example 58, 4-[3-(4,5-dibromothenoylamino)propylthio]pyridine] are 7.9 µM, 48% and 34%.
In the same order, the values of `Cc1ccc(C(=O)NCCCSc2ccncc2)s1` [Example 59, 4-[3-(5-methylthenoylamino)propylthio]pyridine] are 3.5 µM, 35% and 49%.
`O=C1c2ccccc2C(=O)N1CSc1cccnc1` [Example 63, 3-(phthalimidomethylthio)pyridine]: the values for the inhibition in vivo at 50 mg/kg in test [1] and in test [3] were 34% and 56%, respectively.
On to `O=C1c2ccccc2C(=O)N1COc1ccncc1` [Example 65, 4-(phthalimidomethyloxy)pyridine], for which the inhibition in vivo at 50 mg/kg in test [1] is 39%. In addition, in test [3], the inhibition in vivo at 50 mg/kg worked out at 80%. Also, in test [4], the “Antipyretic activity, peak time” value was 4 h and the “Antipyretic activity, .increment. °C.” value was -0.62 °C.
With `O=C(N(CCCSc1ccncc1)Cc1cccs1)C(F)(F)F` [Example 68, 4-[3-[N-(2-thienylmethyl)-N-trifluoroacetylamino]propylthio]pyridine hydrochloride], the inhibition in vivo at 50 mg/kg in test [1] was determined as 23%; in test [3], 50%.
In turn, `CC(=O)N(CCCSc1ccncc1)Cc1cccs1` [Example 90] registered an IC50 at cyclooxygenase of 4.9 µM. In addition, in test [2], the inhibition at 1 µM was 34% and the inhibition at 10 µM came to 49%. Moreover, in test [1], the inhibition in vivo at 50 mg/kg came to 21%. Moreover, the inhibition in vivo at 50 mg/kg in test [3] came to 53%.
With `O=C(NCCCOc1ccncc1)c1ccccc1CO` [Example 100, 4-[3-(2-hydroxymethylbenzoyl)aminopropyloxy]pyridine], the IC50 at cyclooxygenase was found to be 8 µM. In test [2], the inhibition at 1 µM worked out at 19% and the inhibition at 10 µM was found to be 32%. Further, the inhibition in vivo at 50 mg/kg in test [1] was 22%.
Consider `O=C1c2ccccc2CN1CCCOc1ccncc1` [Example 101, 4-[3-(isoindolin-1-on-2-yl)propyloxy]pyridine], for which 3.2 µM corresponded to half-maximal inhibition against cyclooxygenase (IC50). For the same molecule, in test [2], the inhibition at 1 µM is 39% and the inhibition at 10 µM is 12%. The inhibition in vivo at 50 mg/kg in test [1] is 26%. Further, the inhibition in vivo at 50 mg/kg in test [3] worked out at 66%.
On to `O=C1c2ccccc2C(O)N1CCSc1ccncc1` (stereo not shown) [Example 104, 4-[2-(3-hydroxyisoindolin-1-on-2-yl)ethylthio]pyridine], for which, on cyclooxygenase, half-maximal inhibition (IC50) required 7.7 µM. For the same molecule, the inhibition in vivo at 50 mg/kg in test [1] came to 21%.
`O=C1c2ccccc2CN1CCSc1ccncc1` [Example 105, 4-[2-(isoindolin-1-on-2-yl)ethylthio]pyridine] displayed an IC50 at cyclooxygenase of 5.1 µM. In addition, in test [2], the inhibition at 1 µM is -4% and the inhibition at 10 µM was -49%. Also, the inhibition in vivo at 50 mg/kg in test [1] came to 31%. The inhibition in vivo at 50 mg/kg in test [3] came out at 59%.
Regarding `O=C1c2ccccc2C(O)N1CCCSc1ccncc1` (stereo not shown) [Example 110, 4-[3-(3-hydroxyisoindolin-1-on-2-yl)propylthio]pyridine], the IC50 on cyclooxygenase is 11 µM. Besides, in test [2], the inhibition at 1 µM is -21% and the inhibition at 10 µM stood at 1%. Besides, the inhibition in vivo at 50 mg/kg in test [1] was found to be 44%.
With `CNC(=O)c1ccccc1C(=O)NCSc1ccncc1` [Example 112, 4-[(2-methylcarbamoylbenzoyl)aminomethylthio]pyridine], the IC50 on cyclooxygenase was 13 µM. Further, the inhibition in vivo at 50 mg/kg in test [1] came out at 42%. Besides, in test [4], the “Antipyretic activity, peak time” value came to 3 h and the “Antipyretic activity, .increment. °C.” value is -1.58 °C.
Turning to `Cl.O=C1c2ccccc2C(=O)N1CCCOc1ccncc1` [Example 113, 4-(3-phthalimidopropyloxy)pyridine hydrochloride], the inhibition in vivo at 50 mg/kg in test [1] was 35%. In addition, in test [4], the “Antipyretic activity, peak time” value was determined as 4 h and the “Antipyretic activity, .increment. °C.” value is -0.82 °C.
In the case of `O=C1c2ccccc2C(=O)N1CCCCOc1ccncc1` [Example 114, 4-(4-phthalimidobutyloxy)pyridine hydrochloride], the inhibition in vivo at 50 mg/kg in test [1] was determined as 28%. Further, in test [4] (hydrochloride), the “Antipyretic activity, .increment. °C.” value is -1.14 °C and the “Antipyretic activity, peak time” value came out at 4 h.
With `Cl.O=C1c2ccccc2C(=O)N1COc1ccncc1` [Example 116, 4-phthalimidomethyloxypyridine hydrochloride], in test [2], the inhibition at 1 µM is 10% and the inhibition at 10 µM was found to be 31%. Moreover, the “Inhibitory percentage (carrageenin pedal edema)” value in test [1] is 45%. Moreover, in test [4], the “Antipyretic activity, peak time” value was found to be 3 h and the “Antipyretic activity, .increment. °C.” value was -0.63 °C.
`Cl.Cl.O=C(NCCCOc1ccncc1)c1ccccn1` [Example 126, 4-[3-(2-picolinoylamino)propyloxy]pyridine dihydrochloride]: the inhibition in vivo at 50 mg/kg in test [1] is 30%. In test [4], the “Antipyretic activity, peak time” value is on record as 2 h and the “Antipyretic activity, .increment. °C.” value is -1.21 °C.
Molecule `O=C(NCCCCSc1ccncc1)c1cccs1` [Example 129, 4-[4-(2-thenonylamino)butylthio]pyridine] gave an IC50 against cyclooxygenase of 2.5 µM. Moreover, the inhibition in vivo at 50 mg/kg in test [1] was 34%.
The matching figures for `O=C1c2ccccc2CN1CCCCOc1ccncc1` [Example 156, 4-[4-(isoindolin-1-on-2-yl)butyloxy]pyridine]: 2.9 µM and 32%.
For the molecule `O=C1CSC(=S)N1CCCCSc1ccncc1` [Example 163, 4-(4-rhodaninebutylthio)pyridine], the inhibition at 10 µM in test [2] stood at 99%. Also, the inhibition in vivo at 50 mg/kg in test [1] is 29%.
